Read-outs that look alike come from different tables or passages of the source. Numbered stars: 1 amine (or outer) side, 2 acyl side, 3 side chain; on linkers, the order of the positions; unused ones are H or OH. Bridge positions count the residues as written; N and C are the ends. Square brackets hold non-standard residues; d marks the D form. Peptide text beside a SMILES is read from it. I, II: the chains in the order shown. Actinocin(9to1) = Cc1c2oc3c(C)ccc(C(=O)[*:1])c3nc-2c(C(=O)[*:2])c(N)c1=O; NMeV = CN[C@H](C(=O)O)C(C)C; Sar = CNCC(=O)O
Tests used:
[1] = tested on: FXR-UAS-bla HEK293T cells; experiment: Cell viability assay (CellTiter Glo) in the same well as FXR-bla; settings: for IC50: read-out: Cytotoxicity IC50
[2] = target: T1, human FXR (Homo sapiens, UniProt Q96RI1); experiment: FXR-bla reporter gene assay, agonist mode (qHTS); settings: for FXR agonist activity: FXR-bla assay; for FXR agonist Efficacy: Table S3; for FXR agonist EC50: Table S3, FXR-active drugs
[3] = target: T1, human FXR; experiment: FXR-bla reporter gene assay, antagonist mode (CDCA-induced transactivation); settings: for FXR antagonist activity: FXR-bla assay
[4] = IC50, FXR-bla antagonist mode, primary screening, CDCA-induced
[5] = Table S1, primary screening, 50 µM CDCA
[6] = Table 1, mean ± SD of 3 experiments

T1 sequence (Q96RI1 with tags, fused parts or gaps limits assumed): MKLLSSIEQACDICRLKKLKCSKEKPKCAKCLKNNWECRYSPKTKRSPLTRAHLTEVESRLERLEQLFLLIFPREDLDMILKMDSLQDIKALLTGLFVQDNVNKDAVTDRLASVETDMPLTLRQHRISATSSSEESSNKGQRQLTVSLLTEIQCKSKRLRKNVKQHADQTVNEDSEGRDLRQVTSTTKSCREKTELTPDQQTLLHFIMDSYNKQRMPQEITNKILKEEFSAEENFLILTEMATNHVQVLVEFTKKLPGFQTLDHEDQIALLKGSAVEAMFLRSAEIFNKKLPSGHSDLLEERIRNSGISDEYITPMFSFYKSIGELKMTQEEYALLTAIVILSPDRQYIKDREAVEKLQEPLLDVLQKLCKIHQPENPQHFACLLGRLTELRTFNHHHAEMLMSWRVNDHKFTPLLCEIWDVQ

Cc1c(COC(=O)[C@@H]2[C@H](/C=C(\Cl)C(F)(F)F)C2(C)C)cccc1-c1ccccc1 (racemic) [Bifenthrin]
Cytotoxicity IC50 ([1]; Table S1, primary screening): Inactive | FXR agonist mode EC50 ([2]; Table S1, primary screening): Inactive | FXR antagonist mode Efficacy [3]: 50 ± 16 | IC50 ([3]; FXR antagonist mode IC50): 11.3 ± 4.58 µM | FXR antagonist activity ([3]; CDCA-induced): highly selective FXR antagonists

Cc1c(F)c(F)c(COC(=O)[C@@H]2[C@H](/C=C(\Cl)C(F)(F)F)C2(C)C)c(F)c1F (racemic) [Tefluthrin]
Cytotoxicity IC50 ([1]; Table S1, primary screening): Inactive | FXR agonist mode EC50 ([2]; Table S1, primary screening): Inactive | FXR antagonist mode Efficacy [3]: 46 ± 7 | IC50 ([3]; FXR antagonist mode IC50): 12.4 ± 2.01 µM

C[C@]12CC[C@@H]3c4ccc(O)cc4CC[C@H]3[C@@H]1CC[C@H]2O [17α-Estradiol]
Cytotoxicity IC50 ([1]; Table S1, primary screening): Inactive

C[C@]12CC[C@@H]3c4ccc(O)cc4CC[C@H]3[C@@H]1CC[C@@H]2O [17β-Estradiol]
Cytotoxicity IC50 ([1]; Table S1, primary screening): Inactive

Cc1c2oc3c(C)ccc(C(=O)N[C@@H]4C(=O)N[C@H](C(C)C)C(=O)N5CCC[C@H]5C(=O)N(C)CC(=O)N(C)[C@@H](C(C)C)C(=O)O[C@@H]4C)c3nc-2c(C(=O)N[C@@H]2C(=O)N[C@H](C(C)C)C(=O)N3CCC[C@H]3C(=O)N(C)CC(=O)N(C)[C@@H](C(C)C)C(=O)O[C@@H]2C)c(N)c1=O [Actinomycin D] (I: T[dV]P[Sar][NMeV] / II: T[dV]P[Sar][NMeV]; ester I:1-I:C, II:1-II:C; linker I:N-II:N via Actinocin(9to1))
Cell viability IC50 [1]: Inactive

CCC[S+]([O-])c1ccc2[nH]c(NC(=O)OC)nc2c1 (stereo not shown) [Albendazole oxide]
Cytotoxicity IC50 ([1]; Table S1, primary screening): Inactive | FXR agonist mode EC50 ([2]; Table S1, primary screening): Inactive | FXR antagonist mode Efficacy [3]: 35 ± 16% | IC50 ([3]; FXR antagonist mode IC50): 27.9 ± 5.02 µM

O=c1cc(-c2ccc(O)cc2)oc2cc(O)cc(O)c12 [Apigenin]
Cytotoxicity IC50 ([1]; Table S1, primary screening): Inactive

CCOC(=O)[C@H](CCc1ccccc1)N[C@H]1CCc2ccccc2N(CC(=O)O)C1=O [Benazepril]
Cytotoxicity Efficacy ([1]; Table S3): 87 ± 27%

COC(=O)C1=C(C)NC(C)=C(C(=O)OC2CCCN(Cc3ccccc3)C2)C1c1cccc([N+](=O)[O-])c1 (stereo not shown) [Benidipine]
Cytotoxicity IC50 ([1]; Table S1, primary screening): Inactive | FXR agonist activity [2]: weak FXR agonist activity | FXR agonist mode EC50 ([2]; Table S1, primary screening): Inactive | IC50 [3, 4]: 24.8 µM | FXR antagonist mode Efficacy [3, 5]: 84 ± 17% | FXR antagonist Efficacy ([3]; Table S3, 50 µM CDCA): 84 ± 17%

CCCCNC(=O)n1c(NC(=O)OC)nc2ccccc21 [Benomyl]
Cytotoxicity IC50 ([1]; Table S1, primary screening): Inactive | FXR agonist mode EC50 ([2]; Table S1, primary screening): Inactive | FXR antagonist mode Efficacy [3]: 21 ± 18% | IC50 [3, 4]: 18.3 µM

C[C@H](CCC(=O)O)[C@H]1CC[C@H]2[C@@H]3[C@H](O)C[C@@H]4C[C@H](O)CC[C@]4(C)[C@H]3CC[C@]12C [CDCA, Chenodeoxycholic acid]
Cytotoxicity Efficacy ([1]; Table S1, primary screening): 50 ± 1%

COCCOC(=O)C1=C(C)NC(C)=C(C(=O)OC/C=C/c2ccccc2)C1c1cccc([N+](=O)[O-])c1 (stereo not shown) [Cilnidipine]
Cytotoxicity IC50 ([1]; Table S1, primary screening): Inactive | EC50 [2]: 8.08 ± 3.4 µM | FXR agonist activity [2]: FXR agonists | FXR agonist mode Efficacy ([2]; Table S1, primary screening, CDCA 100%): 64 ± 7% | FXR agonist Efficacy [2]: 64 ± 7% | IC50 [3]: 31.1 ± 2.1 µM | FXR antagonist mode Efficacy [3, 5]: 64 ± 12% | FXR antagonist Efficacy ([3]; Table S3, 50 µM CDCA): 64 ± 12%

O=C(Nc1ccccc1)c1ccccc1SSc1ccccc1C(=O)Nc1ccccc1 [DTBBA, 2,2-Dithiobisbenzanilide]
FXR agonist mode Efficacy [2]: 31 ± 13 | EC50 ([2]; read-out: FXR agonist mode EC50, Table S1, primary screening): 24.6 ± 15.3 µM | FXR antagonist mode Efficacy [3]: 51 ± 17 | IC50 ([3]; read-out: FXR antagonist mode IC50): 18 ± 8.46 µM

CC(=O)O[C@@]12CO[C@@H]1C[C@H](O)[C@@]1(C)C(=O)[C@H](O)C3=C(C)[C@@H](OC(=O)[C@H](O)[C@@H](NC(=O)OC(C)(C)C)c4ccccc4)C[C@@](O)([C@@H](OC(=O)c4ccccc4)[C@H]21)C3(C)C [Docetaxel]
Cytotoxicity IC50 ([1]; Table S1, primary screening): Inactive | FXR agonist mode EC50 ([2]; Table S1, primary screening): Inactive | IC50 [3]: 0.008 ± 0.005 µM | FXR antagonist activity ([3]; CDCA-induced): antagonistic effects | FXR antagonist mode Efficacy [3, 5]: 35 ± 4%

CO[C@H]1C[C@H](O[C@H]2[C@H](C)O[C@@H](O[C@@H]3/C(C)=C/C[C@@H]4C[C@@H](C[C@]5(C=C[C@H](C)[C@@H](C6CCCCC6)O5)O4)OC(=O)[C@@H]4C=C(C)[C@@H](O)[C@H]5OC/C(=C\C=C\[C@@H]3C)[C@]54O)C[C@@H]2OC)O[C@@H](C)[C@@H]1O [Doramectin]
Cytotoxicity Efficacy ([1]; Table S1, primary screening): 116 ± 6% | Cytotoxicity Efficacy ([1]; Table S3): 116 ± 6% | IC50 ([1]; Table S1, primary screening): 11 µM | FXR agonist mode Efficacy [2]: 62 ± 9% | FXR agonist Efficacy [2]: 62 ± 9% | FXR antagonist Efficacy [3]: 152 ± 10% | FXR antagonist mode Efficacy [3]: 152 ± 10%

COc1cccc2c1C(=O)c1c(O)c3c(c(O)c1C2=O)C[C@@](O)(C(=O)CO)C[C@@H]3O[C@H]1C[C@H](N)[C@@H](O)[C@H](C)O1 [Epirubicin]
Cell viability IC50 [1, 6]: Inactive

CCOc1ccc2nc3cc(N)ccc3c(N)c2c1 [Ethacridine]
EC50 [2]: 21.4 ± 12 µM | FXR agonist Efficacy [2]: 31 ± 11% | FXR antagonist Efficacy ([3]; Table S3, 50 µM CDCA): 75 ± 17%

C#C[C@]1(O)CC[C@H]2[C@@H]3CCc4cc(O)ccc4[C@H]3CC[C@@]21C [Ethinylestradiol]
Cytotoxicity Efficacy ([1]; Table S1, primary screening): 36 ± 47% | Cytotoxicity Efficacy ([1]; Table S3): 36 ± 47%

CC[C@]1(O)CC[C@H]2[C@@H]3CCC4=CCCC[C@@H]4[C@H]3CC[C@@]21C [Ethylestrenol]
FXR agonist EC50 [2]: Inactive | FXR antagonist Efficacy [3]: 66 ± 11%

CN1CC[C@H](c2c(O)cc(O)c3c(=O)cc(-c4ccccc4Cl)oc23)[C@H](O)C1 [Flavopiridol]
Cell viability IC50 [1, 6]: Inactive

C[C@]12CC[C@@H]3c4ccc(O)cc4C[C@@H](CCCCCCCCC[S+]([O-])CCCC(F)(F)C(F)(F)F)[C@H]3[C@@H]1CC[C@@H]2O (stereo partly shown) [Fulvestrant]
Cytotoxicity IC50 ([1]; Table S1, primary screening): Inactive

CC(C)c1onc(-c2c(Cl)cccc2Cl)c1COc1ccc(/C=C/c2cccc(C(=O)O)c2)c(Cl)c1 [GW4064]
Cytotoxicity IC50 ([1]; Table S1, primary screening): Inactive

CC[C@H](C)[C@H]1O[C@]2(CC[C@@H]1C)C[C@@H]1C[C@@H](C/C=C(\C)[C@@H](O[C@H]3C[C@H](OC)[C@@H](O[C@H]4C[C@H](OC)[C@@H](O)[C@H](C)O4)[C@H](C)O3)[C@@H](C)/C=C/C=C3\CO[C@@H]4[C@H](O)C(C)=C[C@@H](C(=O)O1)[C@]34O)O2 [Ivermectin B1a]
Cytotoxicity Efficacy ([1]; Table S1, primary screening): 124 ± 6% | Cytotoxicity Efficacy ([1]; Table S3): 124 ± 6% | IC50 ([1]; Table S1, primary screening): 14.1 ± 2.63 µM

CO[C@@]12[C@H](COC(N)=O)C3=C(C(=O)C(C)=C(N)C3=O)N1C[C@@H]1N[C@@H]12 [Mitomycin C]
FXR agonist EC50 [2]: Inactive | FXR antagonist Efficacy ([3]; Table S3, 50 µM CDCA): 62 ± 4%

CO/N=C1\C[C@]2(C[C@@H]3C[C@@H](C/C=C(\C)C[C@@H](C)/C=C/C=C4\CO[C@@H]5[C@H](O)C(C)=C[C@@H](C(=O)O3)[C@]45O)O2)O[C@H](/C(C)=C/C(C)C)[C@H]1C [Moxidectin, moxidectin]
FXR agonist activity [2]: did not show agonist activity

COc1cccc2c1C(=O)c1c(O)c3c(c(O)c1C2=O)C[C@@](O)(C(=O)CO)C[C@@H]3O[C@H]1C[C@H](N2CCO[C@H](OC)C2)[C@H](O)[C@H](C)O1 [Nemorubicin]
Cell viability IC50 [1]: Inactive

COC(=O)C1=C(C)NC(C)=C(C(=O)OC)C1c1ccccc1[N+](=O)[O-] [Nifedipine]
FXR agonist mode EC50 ([2]; Table S1, primary screening): Inactive | FXR antagonist activity ([3]; CDCA-induced): antagonists | IC50 [3, 4]: 34 µM | FXR antagonist mode Efficacy [3, 5]: 66 ± 46%

CCC1=C[C@@H]2CN(C1)Cc1c([nH]c3ccccc13)[C@@](C(=O)OC)(c1cc3c(cc1OC)N(C)[C@H]1[C@@](O)(C(=O)OC)[C@H](OC(C)=O)[C@]4(CC)C=CCN5CC[C@]31[C@@H]54)C2 [Vinorelbine]
Cytotoxicity Efficacy ([1]; Table S3): 41 ± 5%

Reference: publication PMC4894417, “Quantitative High-Throughput Profiling of Environmental Chemicals and Drugs that Modulate Farnesoid X Receptor” (Scientific Reports, 2014)
